Data reported in ChEMBL document CHEMBL1156411, “New axane and oppositane sesquiterpenes from Teclea nobilis” (J Nat Prod, 2002).
Activity calls are given as the source filed them.

Assays:
Format in all cases: functional, organism-based
[1] = test system: Staphylococcus aureus; assay: Antimicrobial activity against Staphylococcus aureus
[2] = test system: Staphylococcus aureus; assay: Antimicrobial activity against methicillin-resistant Staphylococcus aureus
[3] = test system: Candida albicans; assay: Antimicrobial activity against Candida albicans
[4] = test system: Cryptococcus neoformans; assay: Antimicrobial activity against Cryptococcus neoformans
[5] = test system: Plasmodium falciparum; assay: Antiplasmodial activity against Plasmodium falciparum D6
[6] = test system: Plasmodium falciparum; assay: Antiplasmodial activity against Plasmodium falciparum W2

Measured: Activity

C=C1CC[C@H](O)[C@@]2(C)CC[C@H](C(=O)C(C)C)[C@@H]12
inactive: [1] | [2] | [3] | [4] | [5] | [6]

C=C1CC[C@@H](O)[C@]2(C)CC[C@H](C(=O)C(C)C)[C@@H]12
inactive: [1] | [2] | [3] | [4] | [5] | [6]
